Experimental data published in US10160747B2, “Compounds and methods for kinase modulation, and indications therefor” (Plexxikon Inc., priority 2016, dated 2018).

Columns and labels:
[1] = tested on: MOLM-14 D835Y (endogenous FLT3 ITD and transfected FLT3 D835Y); assay: MOLM-14 D835Y cell proliferation assay (CellTiter-Glo); format: cell-based; conditions: Homo sapiens, MOLM-14, 72 h; 3 d growth, GMean
Excerpt: (§1) The FLT3 inhibitors may be assessed using the MOLM-14, Acute Myeloid Leukemia cell line that endogenously expresses FLT3 ITD or derivatives of the human FLT3 AML cell line which acquired the D835Y (activation loop) of F691L (gatekeeper) mutation after selection in escalating doses of the FLT3 Inhibitor AC220. FLT3 inhibitors may also be assessed using cells that are engineered to express mutant FLT3. For engineered cells, murine Ba/F3 cells were transfected with full-length FLT3 ITD/D835Y mutations. The parental BA/F3 cells are dependent upon Interleukin-3 (IL-3) for survival, and introduction of the FLT3 constructs rendered these cells dependent upon FLT3 kinase activity when cultured in the absences of IL-3. Engineered BA/F3 cell growth assays can be performed in either the […] of IL-3, to assess the compound inhibition of FLT3 or to detect the presence of off-target activity, respectively. Inhibitors of FLT3 kinase activity reduce or eliminate the FLT3 oncogenic signaling, resulting in reduced cell proliferation. This inhibition is measured as a function of compound concentration to assess IC50 values.
(§2) Cell lines used in proliferation assays are as follows in Table 2:
(§3) Cells were seeded at 1×10^4 cells per well of a 96 well cell culture plate in 50 μl of cell culture medium. Compounds were dissolved in DMSO, typically at a concentration of 0.5 mM and were serially diluted 1:3 for a total of eight points and added to the cells to final concentrations of […], 0.0041, 0.0014 and 0.00046 μM in 100 μl cell culture medium (final concentration 0.2% DMSO). […] The cells were incubated at 37° C., 5% CO2 for three days. CellTiter-Glo Buffer (Promega Cell Viability Assay catalog #G7573) and substrate were equilibrated to room temperature, and enzyme/substrate Recombinant Firefly Luciferase/Beetle Luciferin was reconstituted. The cell plates were equilibrated to room temperature for 30 minutes, then lysed by addition of an equivalent volume of the Celltiter-Glo Reagent. The plate was mixed for 10 minutes on a plate shaker to lyse the cells. The plates were read on a Tecan M1000 using Luminescence protocol modified to read 0.1 s per well. The luminescence reading assesses the ATP content, which correlates directly with cell number such that the reading as a function of compound concentration was used to determine the IC50 value.

[2] = tested on: MOLM-14 F691L (endogenous FLT3 ITD and transfected FLT3 F691L); assay: MOLM-14 F691L cell proliferation assay (CellTiter-Glo); format: cell-based; conditions: Homo sapiens, MOLM-14, 72 h; 3 d growth, GMean
Excerpt: as §1, §2, §3

BA/F3-FLT3-ITD + D835Y = molecular target: T1, BA/F3-FLT3-ITD + D835Y (Homo sapiens, UniProt P36888, D835Y, cells depend on it, form not given); assay: Engineered BA/F3 cell growth assay, FLT3 ITD/D835Y; format: cell-based, murine; conditions: 3 d growth
T1 sequence (P36888 with tags, fused parts or gaps INS600HVDFREYEYD/D835Y): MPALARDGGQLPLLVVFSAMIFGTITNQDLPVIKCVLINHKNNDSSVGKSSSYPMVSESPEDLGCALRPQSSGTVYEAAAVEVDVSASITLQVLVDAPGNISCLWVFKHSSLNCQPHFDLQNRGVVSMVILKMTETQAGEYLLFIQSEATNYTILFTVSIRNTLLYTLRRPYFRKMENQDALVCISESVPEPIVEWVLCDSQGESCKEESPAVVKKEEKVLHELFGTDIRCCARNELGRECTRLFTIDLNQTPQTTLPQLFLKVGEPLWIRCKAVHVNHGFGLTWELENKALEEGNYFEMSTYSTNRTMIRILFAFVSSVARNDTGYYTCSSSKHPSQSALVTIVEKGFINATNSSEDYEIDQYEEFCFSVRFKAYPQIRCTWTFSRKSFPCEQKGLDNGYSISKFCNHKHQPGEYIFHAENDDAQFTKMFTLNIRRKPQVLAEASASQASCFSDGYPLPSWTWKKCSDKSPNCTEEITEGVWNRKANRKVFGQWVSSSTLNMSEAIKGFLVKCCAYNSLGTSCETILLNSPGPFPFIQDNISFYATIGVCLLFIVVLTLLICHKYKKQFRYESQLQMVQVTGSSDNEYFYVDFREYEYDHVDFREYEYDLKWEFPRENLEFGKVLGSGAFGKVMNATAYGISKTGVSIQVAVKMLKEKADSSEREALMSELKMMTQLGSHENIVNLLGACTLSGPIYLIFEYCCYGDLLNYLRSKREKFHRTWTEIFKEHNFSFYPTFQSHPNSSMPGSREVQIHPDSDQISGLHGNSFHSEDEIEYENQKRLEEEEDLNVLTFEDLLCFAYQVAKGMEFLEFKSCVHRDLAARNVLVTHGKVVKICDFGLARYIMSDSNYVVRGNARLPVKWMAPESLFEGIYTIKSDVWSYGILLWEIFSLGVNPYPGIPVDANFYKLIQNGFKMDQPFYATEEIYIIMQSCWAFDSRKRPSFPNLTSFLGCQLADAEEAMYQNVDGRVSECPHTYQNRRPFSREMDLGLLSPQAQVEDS
Excerpt: as §1, §2, §3
The BaF3 assays as developed used to generate the data in Tables 7 and 8 are identical and differ only in minor details in regards to vector design, not biological function. Both introduce the FLT3 gene with MV4-11 based ITD duplications and resistance mutations from an exogenous promoter (MSCV and CMV respectively) in the exact same cell line.
As a result of the expressed FLT3 protein, the IL3 factor dependent BaF3 cell clones become IL3-factor independent.
The compounds in Tables 7 and 8 were tested in an identical fashion by incubating such clones in with increasing concentrations. Inhibition of the FLT3 activity by an inhibitor results in factor dependency, which in the absence of IL3 results in cell death in the three day growth assays.

What does the source list for `COc1ncc(NC(=O)Cc2ccc(-c3cnc(Nc4cnn(C(F)F)c4C)nc3)cc2)cc1C(F)(F)F` [Compound P-0039, 2-[4-[2-[[1-(difluoromethyl)-5-methyl-pyrazol-4-yl]amino]pyrimidin-5-yl]phenyl]-N-[6-methoxy-5-(trifluoromethyl)-3-pyridyl]acetamide]?
IC50 [1]: 0.0001 to 10 µM; IC50 [2]: 0.0001 to 10 µM; GI50 (BA/F3-FLT3-ITD + D835Y): 0.0001 to 10 µM

Which results are given for `O=C(Cc1ccc(-c2cnc3[nH]c(Cl)cc3c2)cc1F)Nc1cc(C(F)(F)F)ccn1` [Compound P-0040, 2-(4-(2-chloro-1H-pyrrolo[2,3-b]pyridin-5-yl)-2-fluorophenyl)-N-(4-(trifluoromethyl)pyridin-2-yl)acetamide]?
IC50 [1]: 0.0001 to 10 µM; IC50 [2]: 0.0001 to 10 µM; GI50 (BA/F3-FLT3-ITD + D835Y): 0.0001 to 10 µM

What does the source list for `COc1ncc(NC(=O)Cc2ccc(-c3cnc(Nc4cn(C(F)F)nc4C)nc3)cc2)cc1C(F)(F)F` [Compound P-0054, 2-[4-[2-[[1-(difluoromethyl)-3-methyl-pyrazol-4-yl]amino]pyrimidin-5-yl]phenyl]-N-[6-methoxy-5-(trifluoromethyl)-3-pyridyl]acetamide]?
IC50 [1]: 0.0001 to 10 µM; IC50 [2]: 0.0001 to 10 µM; GI50 (BA/F3-FLT3-ITD + D835Y): 0.0001 to 10 µM

How did the IC50 [2] turn out when `N#Cc1ccc(-c2cc3cc(-c4ccc(CC(=O)Nc5ccnc(C(F)(F)F)c5)nc4)cnc3[nH]2)cn1` [Compound P-0184, 2-[5-[2-(6-cyano-3-pyridyl)-1H-pyrrolo[2,3-b]pyridin-5-yl]-2-pyridyl]-N-[2-(trifluoromethyl)-4-pyridyl]acetamide] was run?
Its IC50 is 0.0001 to 10 µM.

What about the GI50 (BA/F3-FLT3-ITD + D835Y) of the same compound?
Its GI50 is 0.0001 to 10 µM.

What does the source list for `COc1ncc(NC(=O)Cc2ccc(-c3cnc4[nH]c(-c5ccnc(C#N)c5)cc4c3)nc2)cc1C(F)(F)F` [Compound P-0006, 2-[6-[2-(2-cyano-4-pyridyl)-1H-pyrrolo[2,3-b]pyridin-5-yl]-3-pyridyl]-N-[6-methoxy-5-(trifluoromethyl)-3-pyridyl]acetamide]?
IC50 [1]: 0.0001 to 10 µM; IC50 [2]: 0.0001 to 10 µM; GI50 (BA/F3-FLT3-ITD + D835Y): 0.0001 to 10 µM

`Cn1cc(Nc2ncc(-c3ccc(CC(=O)NCc4ccc(Cl)cn4)cc3)cn2)cn1` [Compound P-0114, N-[(5-chloro-2-pyridyl)methyl]-2-[4-[2-[(1-methylpyrazol-4-yl)amino]pyrimidin-5-yl]phenyl]acetamide] was tested. Which IC50 [2] did it give?
Its IC50 is 0.0001 to 10 µM.

What about the GI50 (BA/F3-FLT3-ITD + D835Y) of the same compound?
Its GI50 is 0.0001 to 10 µM.

With `N#Cc1cc(-c2cc3cc(-c4cc(F)c(CC(=O)Nc5cc(C(F)(F)F)ccn5)cc4F)cnc3[nH]2)ccn1` [Compound P-0188, 2-[4-[2-(2-cyano-4-pyridyl)-1H-pyrrolo[2,3-b]pyridin-5-yl]-2,5-difluoro-phenyl]-N-[4-(trifluoromethyl)-2-pyridyl]acetamide] as the compound, how does the IC50 [1] read?
Its IC50 is 0.0001 to 10 µM.

What about the GI50 (BA/F3-FLT3-ITD + D835Y) of the same compound?
The GI50 was 0.0001 to 10 µM.

For `O=C(Cc1ccc(-c2cnc3[nH]c(-c4ccnc(N5CCOCC5)c4)cc3c2)nc1)Nc1ccnc(C(F)(F)F)c1` [Compound P-0069, 2-[6-[2-(2-morpholino-4-pyridyl)-1H-pyrrolo[2,3-b]pyridin-5-yl]-3-pyridyl]-N-[2-(trifluoromethyl)-4-pyridyl]acetamide], which IC50 [1] is on record?
The IC50 was 0.0001 to 10 µM.

What about the GI50 (BA/F3-FLT3-ITD + D835Y) of the same compound?
The GI50 was 0.0001 to 10 µM.

How did the GI50 (BA/F3-FLT3-ITD + D835Y) turn out when `N#Cc1cc(-c2cc3cc(-c4ccc(CC(=O)Nc5ccnc(C(F)(F)F)c5)cn4)cnc3[nH]2)ccn1` [Compound P-0185, 2-[6-[2-(2-cyano-4-pyridyl)-1H-pyrrolo[2,3-b]pyridin-5-yl]-3-pyridyl]-N-[2-(trifluoromethyl)-4-pyridyl]acetamide] was run?
Its GI50 is 0.0001 to 10 µM.

Which results are given for `COc1cc(-c2cc3cc(-c4ccc(CC(=O)Nc5ccnc(C(F)(F)F)c5)cn4)cnc3[nH]2)ccn1` [Compound P-0186, 2-[6-[2-(2-methoxy-4-pyridyl)-1H-pyrrolo[2,3-b]pyridin-5-yl]-3-pyridyl]-N-[2-(trifluoromethyl)-4-pyridyl]acetamide]?
IC50 [1]: 0.0001 to 10 µM; GI50 (BA/F3-FLT3-ITD + D835Y): 0.0001 to 10 µM

For `O=C(Cc1ccc(-c2cnc3[nH]c(Cl)cc3c2)cc1F)Nc1ccc(C(F)(F)F)cn1` [Compound P-0041, 2-[4-(2-chloro-1H-pyrrolo[2,3-b]pyridin-5-yl)-2-fluoro-phenyl]-N-[5-(trifluoromethyl)-2-pyridyl]acetamide], which GI50 (BA/F3-FLT3-ITD + D835Y) is on record?
Its GI50 is 0.0001 to 10 µM.
